Source: PubChem BioAssay (NCI)
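Grown in 96-well plates, cells were treated for 48 hours with each compound at five concentrations. Insufficient inhibition: endpoint recorded as highest concentration tested. TGI is the concentration that stops growth completely.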 *1 amine or outer side, *2 acyl side, *3 side chain or, on linkers, in order; H or OH if unused. Where a SMILES comes first, the peptide text is derived from it. Bridges are numbered along the chain shown (N, C = ends). Roman numbers before positions name the chains, in order. [ ]: non-standard residue; d: D form. The star is where a group is joined. Actinocin(9to1) = Cc1c2oc3c(C)ccc(C(=O)[*:1])c3nc-2c(C(=O)[*:2])c(N)c1=O; NMeV = CN[CH](C(=O)O)C(C)C; Cbz = O=C(OCc1ccccc1)*; OBn = c1ccc(CO*)cc1; Sar = CNCC(=O)O

Tests used:
Test in all cases: NCI-60 cell line screen, 48 h
[1] = test system: MALME-3M melanoma
[2] = test system: NCI-H460 lung
[3] = test system: HL-60(TB) leukemia
[4] = test system: HOP-62 NSCLC
[5] = test system: TK-10 renal
[6] = test system: PC-3 prostate
[7] = test system: SN12C renal
[8] = test system: MDA-MB-231 breast
[9] = test system: SF-539 CNS
[10] = test system: M14 melanoma

## [N-]=[N+]=CC(=O)OCC1SCCCS1
[1]
  TGI: > 100 µM
[2]
  TGI: > 100 µM
[3]
  TGI: > 100 µM
[4]
  TGI: > 100 µM
[5]
  TGI: > 100 µM
[6]
  TGI: > 100 µM
[7]
  TGI: > 100 µM
[8]
  TGI: > 100 µM

## NC(=S)Nc1[nH]c(=S)nc2c1SC1=N/C(=C\c3ccco3)C(=O)N12
[1]
  TGI: > 83.3 µM
[2]
  TGI: > 100 µM
[3]
  TGI: 46.8 µM
[9]
  TGI: > 100 µM
[4]
  TGI: > 100 µM
[5]
  TGI: > 100 µM
[10]
  TGI: > 100 µM
[6]
  TGI: > 100 µM
[7]
  TGI: > 100 µM
[8]
  TGI: > 100 µM

## CSC1=C(C#N)C(=O)N(c2ccc(C)cc2)C(=S)C1C#N (stereo not drawn)
[1]
  TGI: > 100 µM
[2]
  TGI: > 100 µM
[3]
  TGI: > 100 µM
[9]
  TGI: > 100 µM
[4]
  TGI: > 100 µM
[5]
  TGI: > 100 µM
[10]
  TGI: > 100 µM
[6]
  TGI: > 100 µM
[7]
  TGI: > 100 µM
[8]
  TGI: > 100 µM

## Nc1ccccc1N/C=C\C(=O)C(Cl)(Cl)Cl
[1]
  TGI: > 100 µM
[2]
  TGI: > 100 µM
[3]
  TGI: 85.3 µM
[9]
  TGI: > 100 µM
[4]
  TGI: 37.2 µM
[5]
  TGI: 71.9 µM
[10]
  TGI: 31.8 µM
[6]
  TGI: > 100 µM
[7]
  TGI: 40.2 µM
[8]
  TGI: > 100 µM

## CCCNC(C#N)c1ccc(C(C#N)NCCC)cc1 (stereo not drawn)
[1]
  TGI: > 100 µM
[2]
  TGI: > 100 µM
[3]
  TGI: > 100 µM
[9]
  TGI: > 100 µM
[5]
  TGI: > 100 µM
[10]
  TGI: > 100 µM
[6]
  TGI: > 100 µM
[7]
  TGI: > 100 µM
[8]
  TGI: > 100 µM

## COc1ccc2c(c1)N=C1CSC(c3ccccc3Cl)N1C2 (stereo not drawn)
[1]
  TGI: 73.9 µM
[2]
  TGI: 15.4 µM
[3]
  TGI: 4.76 µM
[9]
  TGI: 22.6 µM
[4]
  TGI: 34.5 µM
[5]
  TGI: 41.8 µM
[10]
  TGI: 28.3 µM
[6]
  TGI: 58.5 µM
[7]
  TGI: 37.5 µM
[8]
  TGI: > 100 µM

## CC[C@H](C)[C@H]1NC(=O)[C@@H](NC(=O)[C@@H](CC(C)C)N(C)CC2CCCN2C(=O)C(C)=O)[C@@H](C)OC(=O)[C@H](Cc2ccc(OC)cc2)N(C)C(=O)C2CCCN2C(=O)[C@H](CC(C)C)NC(=O)[C@@H](C)C(=O)[C@H](C(C)C)OC(=O)C[C@@H]1O (stereo partly drawn)
[1]
  TGI: 0.0474 µM
[2]
  TGI: 0.00812 µM
[3]
  TGI: 0.021 µM
[4]
  TGI: 0.00713 µM
[5]
  TGI: 0.0202 µM
[10]
  TGI: 0.00972 µM
[6]
  TGI: 0.00983 µM
[7]
  TGI: 0.0301 µM
[8]
  TGI: 0.0251 µM

## COc1cc(/C=C2\N=C(c3ccccc3)N(c3nc4c(OC)ccc(OC)c4s3)C2=O)cc(OC)c1OC
[1]
  TGI: > 100 µM
[2]
  TGI: > 100 µM
[3]
  TGI: > 100 µM
[4]
  TGI: > 100 µM
[5]
  TGI: > 100 µM
[10]
  TGI: > 100 µM
[6]
  TGI: > 100 µM
[7]
  TGI: > 100 µM
[8]
  TGI: > 100 µM

## CSc1c(C#N)c(=O)[nH]c2n[nH]c(C)c12
[1]
  TGI: > 100 µM
[2]
  TGI: > 100 µM
[3]
  TGI: > 100 µM
[9]
  TGI: > 100 µM
[5]
  TGI: > 100 µM
[10]
  TGI: > 100 µM
[6]
  TGI: > 100 µM
[7]
  TGI: > 100 µM
[8]
  TGI: > 100 µM

## O=C(c1ccccc1)c1ccc2nc(-c3c(Cl)c(Cl)c(Cl)c(Cl)c3C(=O)N/N=C/c3ccccc3)[nH]c2c1
[1]
  TGI: 83 µM
[3]
  TGI: 73 µM
[9]
  TGI: > 100 µM
[4]
  TGI: 99.7 µM
[5]
  TGI: > 100 µM
[10]
  TGI: > 100 µM
[6]
  TGI: > 100 µM
[7]
  TGI: 60.8 µM
[8]
  TGI: 79.2 µM

## C=C(CC[C@@H](C(=O)O)[C@H]1[C@H](O)C[C@@]2(C)C3=CC[C@@H](C(=C)C)[C@](C)(CCC(=O)O)C3=CC[C@]12C)C(C)C
[1]
  TGI: 40.8 µM
[2]
  TGI: 34.7 µM
[3]
  TGI: 36 µM
[9]
  TGI: 37.7 µM
[5]
  TGI: 32.3 µM
[10]
  TGI: 32.7 µM
[6]
  TGI: 34.3 µM
[7]
  TGI: 31.9 µM
[8]
  TGI: 40.7 µM

## Cc1nc2ccc(S(=O)(=O)O)cc2c(=O)n1-c1ccc(C(=O)NN2C(=O)C(Cl)C2c2ccccc2O)cc1 (stereo not drawn)
[1]
  TGI: > 100 µM
[3]
  TGI: > 100 µM
[9]
  TGI: > 100 µM
[4]
  TGI: > 100 µM
[5]
  TGI: > 100 µM
[10]
  TGI: > 100 µM
[6]
  TGI: > 100 µM
[7]
  TGI: > 100 µM
[8]
  TGI: > 100 µM

## COC(=O)C(Cc1ccc(O)cc1)NC(=O)C(CC(=O)OCc1ccccc1)NC(=O)OCc1ccccc1 (stereo not drawn) (Cbz-Asp(OBn)-Tyr-OMe; configuration not given here)
[1]
  TGI: > 100 µM
[2]
  TGI: 25.9 µM
[3]
  TGI: 52.7 µM
[4]
  TGI: 34.6 µM
[5]
  TGI: 33.5 µM
[10]
  TGI: 44.4 µM
[6]
  TGI: 31.6 µM
[7]
  TGI: 39.3 µM
[8]
  TGI: 37.5 µM

## CN(C)Cc1cc(O)c(O)c(CN(C)C)c1
[1]
  TGI: > 100 µM
[2]
  TGI: 52.5 µM
[3]
  TGI: 92 µM
[4]
  TGI: > 100 µM
[5]
  TGI: > 100 µM
[10]
  TGI: 59.3 µM
[6]
  TGI: > 100 µM
[7]
  TGI: > 100 µM
[8]
  TGI: > 100 µM

## Cc1c2oc3c(C)ccc(C(=O)NC4C(=O)NC(C(C)O)C(=O)N5CCCC5C(=O)N(C)CC(=O)N(C)C(C(C)C)C(=O)OC4C)c3nc-2c(C(=O)NC2C(=O)NC(C(C)O)C(=O)N3CCCC3C(=O)N(C)CC(=O)N(C)C(C(C)C)C(=O)OC2C)c(N)c1=O (stereo not drawn) (I: TTP[Sar][NMeV] / II: TTP[Sar][NMeV]; ester I:1-I:C, II:1-II:C; linker I:N-II:N via Actinocin(9to1); configuration not given here)
[2]
  TGI: > 100 µM
[3]
  TGI: 5.12 µM
[9]
  TGI: 1.44 µM
[4]
  TGI: 10 µM
[5]
  TGI: 6.18 µM
[10]
  TGI: 3.77 µM
[6]
  TGI: > 100 µM
[7]
  TGI: > 100 µM
[8]
  TGI: > 100 µM
